The structures appear in SMILES notation.

One experiment deals with compound 48/80-induced lethality. In words: Protection of rats from compound 48/80-induced lethality. In kind it is in vivo, rats of an inbred Wistar strain. The following applies: Rattus norvegicus, 4 h, read-out: Compound 48/80 lethality test in rats ED50, s.c. or p.o. 1 h before compound 48/80 0.5 mg/kg i.v.; protection of 50% of animals, survival after 4 hours. On the procedure: Protection of rats from compound 48/80-induced lethality
The protection from compound 48/80-induced lethal circulatory collapse appears to be a simple way of evaluating quantitatively the antihistaminic activity of test compounds. Male rats of an inbred Wistar strain, weighing 240-260 g were used in the experiment. After overnight starvation the rats were transferred to conditioned laboratories (temp.=21±1° C., relative humidity=65+5%). The rats were treated subcutaneously or orally with a test compound or with the solvent (NaCl solution, 0.9%). […] Survival after 4 hours is therefore considered to be a safe criterion of a protective effect of drug administration. The ED50 -values of the compounds of formula (I) are listed in the first column of tables 1 to 4. Said ED50 -values are the values in mg/kg body weight at which the tested compounds protect 50% of the tested animals against compound 48/80-induced lethality. The compounds of formula (I) and the pharmaceutically acceptable acid addition salts thereof are also potent serotonin-antagonists. The potency of the subject compounds as serotonin-antagonists is clearly evidenced by the results obtained in the following tests wherein the antagonistic activity of the subject compounds on the effect of serotonin is examined.
For the molecule `COc1ccc(CCN2CCC(Cc3nc4cccnc4n3Cc3ccccn3)CC2)cc1` [Compound 234], the ED50 turned out to be 0.02 mg/kg.
For the molecule `O=c1cc[nH]c(=O)n1CCN1CCC(Cc2nc3ccccc3n2Cc2ccco2)CC1` [Compound 175], the ED50 came out at 0.02 mg/kg.
Regarding `Cc1nc2ccccn2c(=O)c1CCN1CCC(Cc2nc3ccncc3n2Cc2ccc(F)cc2)CC1` [Compound 270], the ED50 turned out to be 0.08 mg/kg.
As to `O=C(c1ccco1)N(CCN1CCC(Cc2nc3ccccc3n2Cc2ccco2)CC1)c1ncccn1` [Compound 509, N-[2-[4-[[1-(2-furanylmethyl)-1H-benzimidazol-2-yl]methyl]-1-piperidinyl]-ethyl]-N-(2-pyrimidinyl)-2-furancarboxamide], the ED50 stood at 0.02 mg/kg.
As for `Fc1ccc(Cn2c(CC3CCN(C4CCCCC4)CC3)nc3cccnc32)cc1` [Compound 98], the ED50 is 0.04 mg/kg.
For the molecule `CCOC(=O)N1CCC(Cc2nc3ccccc3n2Cc2cccs2)CC1` [Compound 59, ethyl 4-[[1-(2-thienylmethyl)-1H-benzimidazol-2-yl]methyl]-1-piperidinecarboxylate], the ED50 is 0.02 mg/kg.
In the case of `Cc1nc2scc(C)n2c(=O)c1CCN1CCC(Cc2nc3ccccc3n2Cc2ccco2)CC1` [Compound 216], the ED50 is 0.04 mg/kg.
For the molecule `COc1ccc(Cn2c(CC3CCN(CCCn4c(=O)[nH]c5ccccc54)CC3)nc3ccccc32)cc1` [Compound 154], the ED50 worked out at 0.08 mg/kg.
On the same count and under the same terms, next, `Fc1ccc(Cn2c(CC3CCN(CCNc4nc5ccccc5[nH]4)CC3)nc3cccnc32)cc1` [Compound 329, N-[2-[4-[[3-[(4-fluorophenyl)methyl]-3H-imidazo[4,5-b]pyridin-2-yl]methyl]-1-piperidinyl]ethyl]1H-benzimidazol-2-amine]: 0.31 mg/kg; `Cc1nc(CCN2CCC(Cc3nc4ccccc4n3Cc3ccc(F)cc3)CC2)cs1` [Compound 459, 1-[(4-fluorophenyl)methyl]-2-[[1-[2-(2-methyl-4-thiazolyl)ethyl]-4-piperidinyl]methyl]-1H-benzimidazole]: 0.02 mg/kg; `CC(C)N1CCC(Cc2nc3ccccc3n2Cc2ccc(F)cc2)CC1` [Compound 83]: 0.01 mg/kg.
As to `CC(C)N1CCC(Cc2nc3cccnc3n2Cc2ccc(F)cc2)CC1` [Compound 89], the ED50 was 0.04 mg/kg.
The same measure, in the same setting: next, `Nc1ccccc1C(=O)NCCN1CCC(Oc2nc3ccccc3n2Cc2ccc(F)cc2)CC1` [Compound 480, 2-amino-N-[2-[4-[[1-[(4-fluorophenyl)methyl]-1H-benzimidazol-2-yl]oxy]-1-piperidinyl]ethyl]benzamide]: 0.02 mg/kg; `CC(=O)N(C)c1ccccc1C(=O)NCCN1CCC(Cc2nc3ccccc3n2Cc2ccco2)CC1` [Compound 511]: 0.16 mg/kg.
The same measure, in the same setting: next, `Fc1ccc(Cn2c(CC3CCN(CCNc4cnccn4)CC3)nc3ccccc32)cc1` [Compound 368]: 0.01 mg/kg; `Cc1nc2ccccn2c(=O)c1CCN1CCC(Cc2nc3ccccc3n2Cc2cscn2)CC1` [Compound 261]: 0.08 mg/kg.
Still for that read-out and setting: next, `O=c1oc2ccccc2cc1CCN1CCC(Cc2nc3ccccc3n2Cc2ccc(F)cc2)CC1` [Compound 161]: 0.04 mg/kg.
For the molecule `Nc1ccccc1C(=O)NCCCCN1CCC(Cc2nc3ccccc3n2Cc2ccco2)CC1` [Compound 472, 2-amino-N-[4-[4-[[1-(2-furanylmethyl)-1H-benzimidazol-2-yl]methyl]-1-piperidinyl]butyl]benzamide], the ED50 turned out to be 0.04 mg/kg.
For `COc1ccc(CCN2CCC(Cc3nc4ccccc4n3CCc3ccccc3)CC2)cc1` [Compound 516, 2-[[1-[2-(4-methoxyphenyl)ethyl]-4-piperidinyl]methyl]-1-(2-phenylethyl)-1H-benzimidazole], the ED50 was 0.16 mg/kg.
Turning to `N#CCN1CCC(Cc2nc3cccnc3n2Cc2ccc(F)cc2)CC1` [Compound 290], the ED50 worked out at 0.08 mg/kg.
`CN1CCC(Cc2nc3ccccc3n2Cc2ccccc2)CC1` [Compound 93]: the ED50 stood at 0.04 mg/kg.
The same measure, in the same setting: next, `COc1ccc(CCN2CCC(Cc3nc4ccccc4n3Cc3ccccc3F)CC2)cc1` [Compound 515, 1-[(2-fluorophenyl)methyl]-2-[[1-[2-(4-methoxyphenyl)ethyl]-4-piperidinyl]-methyl]-1H-benzimidazole]: 0.16 mg/kg; `O=[N+]([O-])c1ccccc1NCCN1CCC(Cc2nc3ccccc3n2Cc2ccc(F)cc2)CC1` [Compound 366]: 0.31 mg/kg.
`O=C(Cc1ccsc1)NCCN1CCC(Cc2nc3ccccc3n2Cc2ccc(F)cc2)CC1` [Compound 440, N-[2-[4-[[1-[(4-fluorophenyl)methyl]-1H-benzimidazol-2-yl]methyl]-1-piperidinyl]ethyl]-3-thiopheneacetamide]: the ED50 is 0.02 mg/kg.
Turning to `Cn1c(=O)n(CCN2CCC(Cc3nc4cccnc4n3Cc3ccco3)CC2)c(=O)c2ccccc21` [Compound 170], the ED50 stood at 0.08 mg/kg.
As to `O=c1[nH]c2ccccc2n1CCCN1CCC(Sc2nc3ccccc3n2Cc2ccc(F)cc2)CC1` [Compound 255], the ED50 was determined as 0.16 mg/kg.
On the same count and under the same terms, next, `COc1ccc(Cn2c(CC3CCN(CC#N)CC3)nc3ccccc32)cc1` [Compound 293]: 0.08 mg/kg; `Nc1ccccc1C(=O)NCCN1CCC(Cc2nc3cccnc3n2Cc2ccco2)CC1` [Compound 473, 2-amino-N-[2-[4-[[3-(2-furanylmethyl)-3H-imidazo[4,5-b]pyridin-2-yl]methyl]-1-piperidinyl]ethyl]benzamide]: 0.02 mg/kg; `CC1(C)Nc2ccccc2C(=O)N1CCN1CCC(Cc2nc3cccnc3n2Cc2ccccn2)CC1` [Compound 479, 2,3-dihydro-2,2-dimethyl-3-[2-[4-[[3-(2-pyridinylmethyl)-3H-imidazo[4,5-b]-pyridin-2-yl]methyl]-1-piperidinyl]ethyl]-4(1H)-quinazolinone]: 0.04 mg/kg.
For `Fc1ccc(Cn2c(CC3CCN(CCNCc4ccccn4)CC3)nc3ccccc32)cc1` [Compound 427, N-[2-[4-[[1-[(4-fluorophenyl)methyl]-1H-benzimidazol-2-yl]methyl]-1-piperidinyl]ethyl]-2-pyridinemethanamine], the ED50 amounted to 0.16 mg/kg.
On to `Fc1ccc(Cn2c(SC3CCN(CCOc4ncccn4)CC3)nc3ccccc32)cc1` [Compound 393, 1-[(4-fluorophenyl)methyl]-2-[[1-[2-(2-pyrimidinyloxy)ethyl]-4-piperidinyl]thio]-1H-benzimidazole], for which the ED50 came to 0.08 mg/kg.
With `c1ccc(Cn2c(CC3CCN(CCNc4ncccn4)CC3)nc3cccnc32)cc1` [Compound 345], the ED50 came to 0.08 mg/kg.
For `CN1CCC(Oc2nc3ccccc3n2Cc2ccc(F)cc2)CC1` [Compound 85], the ED50 was 0.01 mg/kg.
For `O=S(=O)(CCN1CCC(Cc2nc3ccccc3n2Cc2ccc(F)cc2)CC1)c1ccccc1` [Compound 130], the ED50 was found to be 0.16 mg/kg.
Same read-out and setting: next, `COc1ccc(CCN2CCC(Cc3nc4ccccc4n3Cc3cnccn3)CC2)cc1` [Compound 524, 2-[[1-[2-(4-methoxyphenyl)ethyl]-4-piperidinyl]methyl]-1-(2-pyrazinylmethyl)-1H-benzimidazole]: 0.16 mg/kg; `CSc1nc2cncnc2n1CCN1CCC(Cc2nc3ccccc3n2Cc2ccc(F)cc2)CC1` [Compound 507, 9-[2-[4-[[1-[(4-fluorophenyl)methyl]-1H-benzimidazol-2-yl]methyl]-1-piperidinyl]ethyl]-8-(methylthio)-9H-purine]: 0.16 mg/kg; `Fc1ccc(Cn2c(CC3CCNCC3)nc3ncccc32)cc1` [Compound 48, 1-[(4-fluorophenyl)methyl]-2-(4-piperidinylmethyl)-1H-imidazo[4,5-b]-pyridine]: 0.16 mg/kg.
Consider `Fc1ccc(Cn2c(CC3CCNCC3)nc3ccncc32)cc1` [Compound 50, 3-[(4-fluorophenyl)methyl]-2-(4-piperidinylmethyl)-3H-imidazo[4,5-c]-pyridine], for which the ED50 amounted to 0.04 mg/kg.
Turning to `COc1ccc(Cn2c(CC3CCN(CCO)CC3)nc3ccccc32)cc1` [Compound 110, 4-[[1-[(4-methoxyphenyl)methyl]-1H-benzimidazol-2-yl]methyl]-1-piperidineethanol], the ED50 stood at 0.02 mg/kg.
In the case of `O=c1[nH]c2ccccc2c(=O)n1CCCCN1CCC(Cc2nc3ccccc3n2Cc2ccco2)CC1` [Compound 490, 3-[4-[4-[[1-(2-furanylmethyl)-1H-benzimidazol-2-yl]methyl]-1-piperidinyl]butyl]-2,4(1H,3H)-quinazolinedione], the ED50 is 0.31 mg/kg.
As to `CC(C)N1CCC(Cc2nc3cnccc3n2Cc2ccc(F)cc2)CC1` [Compound 100], the ED50 worked out at 0.16 mg/kg.
On the same count and under the same terms, next, `Fc1ccc(Cn2c(CC3CCN(Cc4ccccc4)CC3)nc3ncccc32)cc1` [Compound 23, 1-[(4-fluorophenyl)methyl]-2-[[1-(phenylmethyl)-4-piperidinyl]methyl]-1H-imidazo[4,5-b]pyridine]: 0.08 mg/kg.
Turning to `OC(COc1ccc2ccccc2c1)CN1CCC(Cc2nc3ccccc3n2Cc2ccc(F)cc2)CC1` (stereo not drawn) [Compound 116, 4-[[1-[(4-fluorophenyl)methyl]-1H-benzimidazol-2-yl]methyl]-α-[(2-naphthalenyloxy)methyl]-1-piperidineethanol], the ED50 is 0.16 mg/kg.

Staying with this experiment, now noted: s.c. or p.o. 1 h before compound 48/80 0.5 mg/kg i.v.; protection of 50% of animals, survival after 4 hours; 0.5 mg/kg, 240 min.
Turning to `Cc1nc2n(c(=O)c1CCN1CCC(Cc3nc4ccccc4n3Cc3ccco3)CC1)CCS2` [Compound 167], the “Compound 48/80 lethality test in rats ED50” value was determined as 0.01 mg/kg body weight.

The values above are taken from patent publication US4839374A, “4-((Bicyclic heterocyclyl)-methyl and -hetero)-piperidines” (Janssen Pharmaceutica, N.V., priority 1987, dated 1989).
